This is an account of results in patent US10966999B2, “3′3′ cyclic dinucleotides with phosphonate bond activating the sting adaptor protein” (INSTITUTE OF ORGANIC CHEMISTRY AND BIOCHEMISTRY ASCR, V.V.I., priority 2017, dated 2021).

In one test the target is T1, WT STING (Homo sapiens, UniProt Q86WV6, H232R).
T1 construct: encoded truncated human WT STING or AQ STING (amino acid residues 140-343) with N-terminal 8×His and SUMO tag; 8xHis-SUMO (N, cleaved yes); made in house; host or cells: E. coli Rosetta-gami B (DE3)
Kind of test: Differential Scanning Fluorimetry (DSF) with WT STING. Format: binding. Conditions: thermal shift vs STING apoprotein; 150 μM CDN; 0.1 mg/ml protein; SYPRO Orange. On the procedure:
(§1) WT STING and AQ STING Proteins
(§2) Purified PCR products were cleaved with restriction enzymes BamHI (cat. #R0136S, NEB, Ipswich, USA) and NotI (cat. #R0189S, NEB, Ipswich, USA) and cloned into the pSUMO vector linearized with the identical enzymes.
(§3) DNase I (cat. #D5025, Sigma Aldrich, Czech Republic) and RNase A (cat. #R6513, Sigma Aldrich, Czech Republic) were added (final concentration 50 μg/ml) together with MgCl2 (final concentration 5 mmol·l^−1) to the homogenate and bacteria were lysed using French Press G-M™ High-Pressure Cell Press Homogenizer (1500 psi, 3 cycles). […] The resin was poured into a chromatography column, washed with 50 ml buffer A (50 mmol·l^−1 TrisCl (pH 8.0), 800 mmol·l^−1 NaCl, 3 mmol·l^−1 3-mercaptol; 10% glycerol; 20 mmol·l^−1 imidazole) and 8-His-SUMO tagged STING proteins were eluted with 15 ml buffer A containing 300 mmol·l^−1 imidazole. […] Proteins were concentrated with Amicon® Ultra-15 10 K device (cat. #UFC901008, Merck Millipore, Billerica, USA) and flash frozen in liquid N2.
(§4) Differential Scanning Fluorimetry (DSF) with WT STING and AQ STING
(§5) 20 μL solutions of the reaction mixtures were pipetted in triplicates into 96 well optical reaction plates and thermal denaturation of samples were performed on real time PCR cycler (LightCycler R 480 Instrument II—Roche, Basel, Switzerland). The first derivative of the thermal denaturation curves was performed to calculate denaturing temperatures of STING-CDN complexes and STING apoproteins. The thermal shift for each CDN was calculated by subtracting the average denaturing temperature of STING apoprotein from the average denaturing temperature of STING CDN complex.
In general terms: In DSF a fluorescence change marks the thermal transition of the protein.

The target in a further test is T2, AQ STING (G230A-R293Q) (Homo sapiens, UniProt Q86WV6, G230A/H232R/R293Q).
T2 construct: encoded truncated human WT STING or AQ STING (amino acid residues 140-343) with N-terminal 8×His and SUMO tag; 8xHis-SUMO (N, cleaved yes); made in house; host or cells: E. coli Rosetta-gami B (DE3)
As to the kind of experiment: Differential Scanning Fluorimetry (DSF) with AQ STING. Format: binding. Conditions: thermal shift vs STING apoprotein; 150 μM CDN; 0.1 mg/ml protein; SYPRO Orange. On the procedure: as §1, §2, §3, §4, §5

Test [1] addresses T3, human wild type STING (WT STING) (Homo sapiens, UniProt Q86WV6, H232R).
T3 construct: host or cells: 293T (ATCC CRL-3216), stably transfected, with a 4xISRE firefly luciferase reporter
Kind of test: Digitonin assay using 293T wtSTING-FL reporter cells. The class given is cell-based. Conditions: 293T wtSTING-FL cells; ISRE firefly luciferase reporter; 30 min in Digitonin buffer, then 5 hours; 8-point dose-response curve. The source says: ISRE Reporter Plasmid (pGL64.27-4×ISRE)
Two complementary oligonucleotides of the sequence […] […] […] […] […] The oligonucleotides were mixed in equal molar amounts, hybridized, and cleaved by restriction endonucleases HindIII (cat. #. R0104S, NEB, Ipswich, USA) and BglII (cat. #R0144S, NEB, Ipswich, USA). Ultimately, they were ligated into plasmid pGL4.27 (cat. #E6651, Promega, Madison, USA) linearized with the same enzymes. As result the sequence with four ISRE sites was placed upstream of the minimum promoter of firefly luciferase reporter gene.
After 5 minutes incubation at room temperature (RT), 250 μL of the mixture was added dropwise to the cells in one well. Cells were incubated 36 hours at 37° C. with 5% CO2, and then detached with 0.05% Trypsin and 0.22 g/L EDTA (both cat. #L0941, Biowest, Riverside, USA).
Transfected cells were seeded onto poly-D-lysine coated six well plates at density 50,000 cells per 1 cm^2 in DMEM medium with high glucose containing 10% heat inactivated FBS, 30 μg/mL blasticidin (cat. #ant-bl-05, InvivoGen, San Diego, USA), 0.06 mg/ml Penicillin G and 0.1 mg/ml Streptomycin Sulfate (both cat. #. L0018, Biowest, Riverside, USA). The medium was replenished every 3-4 days until visible colonies of cells resistant to blasticidin were formed.
Blasticidin resistant cells stably expressing WT STING were further transfected with pGL64.27-4×ISRE plasmid following the same procedure as described above. […] Homogeneous culture of stably double transfected cells was prepared by limiting dilution of cells in 96 well plates and wells with cells were selected that originated from a single cell.
The medium was removed next day and three fold serial dilutions of compounds in Digitonin buffer containing 50 mmol·l^−1 HEPES (cat. #H3375, Sigma Aldrich, Czech Republic) pH 7.0, 100 mmol·l^−1 KCl, 3 mmol·l^−1 MgCl2, 0.1 mmol·l^−1 DTT (cat. #D0632, Sigma Aldrich, Czech Republic), 85 mmol·l^−1 Sucrose (cat. #S7903, Sigma Aldrich, Czech Republic), 0.2% BSA (cat. #A2153, Sigma Aldrich, Czech Republic), 1 mmol·l^−1 ATP (cat. #A1852, Sigma Aldrich, Czech Republic), 0.1 mmol·l^−1 GTP (cat. #G8877, Sigma Aldrich, Czech Republic), and 10 μg/mL Digitonin A (cat. #D141, Sigma Aldrich, Czech Republic) were added to the cells. The buffer was removed after 30 minutes incubation at 37° C. with 5% CO2, the cells were washed once with 100 μl of cultivation medium, and 100 μl of medium was added to each well. The plates with cells were incubated for 5 hours at 37° C. with 5% CO2, 50 μl of the medium was removed and 30 μl of ONE-Glo™ Luciferase Assay System reagent (cat. #E6120, Promega, Madison, USA) was added to each well. Luminescence was read on Synergy H1 (Biotek, Winooski, USA).
(In general: Reporter assays use an easily measured gene product as a stand-in for the process of interest.)

T1 sequence (Q86WV6 140-343 H232R): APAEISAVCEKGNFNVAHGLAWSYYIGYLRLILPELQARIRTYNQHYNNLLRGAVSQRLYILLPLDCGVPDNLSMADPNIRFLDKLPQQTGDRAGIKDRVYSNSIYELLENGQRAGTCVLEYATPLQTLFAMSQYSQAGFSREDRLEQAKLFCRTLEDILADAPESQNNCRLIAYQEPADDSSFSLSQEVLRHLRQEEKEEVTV
T3 sequence (Q86WV6 whole entry H232R): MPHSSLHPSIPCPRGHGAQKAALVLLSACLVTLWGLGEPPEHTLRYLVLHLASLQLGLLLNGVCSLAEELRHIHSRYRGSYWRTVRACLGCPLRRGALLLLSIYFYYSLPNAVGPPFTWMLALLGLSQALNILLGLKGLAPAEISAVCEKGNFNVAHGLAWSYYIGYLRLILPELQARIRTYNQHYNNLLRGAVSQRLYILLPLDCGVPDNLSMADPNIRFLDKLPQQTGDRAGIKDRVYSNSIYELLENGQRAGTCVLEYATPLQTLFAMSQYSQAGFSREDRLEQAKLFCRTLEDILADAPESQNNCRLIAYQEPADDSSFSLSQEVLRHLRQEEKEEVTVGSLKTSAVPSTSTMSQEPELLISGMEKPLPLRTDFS
T2 sequence (Q86WV6 140-343 G230A/H232R/R293Q): as the sequence (Q86WV6 140-343 H232R) above, with G91A, R154Q counted along it

The ΔTm is the shift of the melting midpoint relative to a reference. One may read the EC50 as the concentration needed to bring the measured effect to its halfway point. Take `Nc1ncnc2c1ncn2[C@@H]1O[C@@H]2COCP(=O)(O)OC3C(F)[C@H](n4cnc5c(N)ncnc54)O[C@@H]3COP(=O)(O)OC2C1O` (stereo partly drawn) [Compound 34, (2R,3R,3aS,7aR,9R,10R,10aR,15aR)-2,9-bis(6-amino-9H-purin-9-yl)-10-fluoro-3,5,12-trihydroxydecahydro-2H-difuro[2,3-e:2′,3′-1][1,3,7,10]tetraoxa[2,8]diphosphacyclotridecine 5,12-dioxide]: the ΔTm at 150 µM at WT STING came out at 0.2 °C; at AQ STING (G230A-R293Q), 4.3 °C. The EC50 in test [1] is 19.6 µM.

As to `Nc1nc2c(ncn2[C@@H]2O[C@@H]3COCP(=O)(O)OC4C(F)[C@H](n5cnc6c(N)ncnc65)O[C@@H]4COP(=O)(O)OC3C2O)c(=O)[nH]1` (stereo partly drawn) [Compound 35, 2-amino-9-((2R,3R,3aS,7aR,9R,10R,10aR,15aR)-9-(6-amino-9H-purin-9-yl)-10-fluoro-3,5,12-trihydroxy-5,12-dioxidodecahydro-2H-difuro[2,3-e:2′,3′-l][1,3,7,10]tetraoxa[2,8]diphosphacyclotridecin-2-yl)-1,9-dihydro-6H-purin-6-one], the figures for the shift in melting temperature (ΔTm) at 150 µM at WT STING and on AQ STING (G230A-R293Q) were 2.3 °C and 9 °C, respectively. The half-maximal effective concentration (EC50) in test [1] was found to be 2.4 µM.

Regarding `Nc1ncnc2c1ncn2[C@@H]1O[C@@H]2OCP(=O)(O)OC3C(O)[C@H](n4cnc5c(N)ncnc54)O[C@@H]3OCP(=O)(O)OC2C1O` (stereo partly drawn) [Compound 31, (2R,3R,3aS,7aR,9R,10R,10aS,14aR)-2,9-bis(6-amino-9H-purin-9-yl)-3,5,10,12-tetrahydroxydecahydrodifuro[2,3-e:2′,3′-k][1,4,7,10]tetraoxa[2,8]diphosphacyclododecine 5,12-dioxide], the ΔTm at 150 µM on WT STING is 0.1 °C; on AQ STING (G230A-R293Q), 2.5 °C. In addition, in test [1], the EC50 amounted to 19.2 µM.

As for “(2R,3R,3aS,7aR,9R,10R,10aR,14aR)-2,9-bis(6-amino-9H-purin-9-yl)-10-fluoro-3,5,12-trihydroxydecahydrodifuro[3,2-d:3′,2′-i][1,3,6,9]tetraoxa[2,8]diphosphacyclododecine 5,12-dioxide [Compound 33]”, the “DSF ΔTm WT STING” value at WT STING is 5.7 °C. Besides, the “DSF ΔTm AQ STING” value on AQ STING (G230A-R293Q) was determined as 12.0 °C. The concentration giving a half-maximal response (EC50) in test [1] was 0.11 µM.

On to `Nc1nc(Cl)c2ncn([C@@H]3O[C@@H]4COP(=O)(O)OC5C(O)[C@H](n6cnc7c(N)ncnc76)O[C@@H]5OCP(=O)(O)OC4C3O)c2n1` (stereo partly drawn) [Compound 40], for which the thermal shift (ΔTm) at 150 µM on WT STING worked out at 0.4 °C; on AQ STING (G230A-R293Q), 2.1 °C. The half-maximal effective concentration (EC50) in test [1] amounted to 7.5 µM.
